The results in this text go back to US20060287247A1, “Halogen-substituted thienyl compounds” (priority 2001, published 2006).

SMILES strings stand for the structures.

One test deals with 5′-AAAAAGTACAAAAA-3′. Type of test: binding. Particulars: DNA sequence 5′-AAAAAGTACAAAAA-3′; pH 7.0, 22° C. As to the method: (§1) A number of compounds according to this invention were screened for their ability to bind to three DNA sites, using DNase I footprinting. Generally, the procedure described in Dervan, WO 98/50582 (1998), was followed.
(§2) A plasmid was prepared by hybridizing two sets of 5′-phosphorylated complementary oligonucleotides, one set being
(§3) The target sites and their complements are identified in bold underline.
(§4) The resulting duplexes were ligated to the large pUC19 AvaI/SalI restriction fragment. The 3′-P32 end-labeled EcoRI/PvuII fragment was prepared by digesting the plasmid with EcoRI and PvuII with simultaneous fill-in using Sequenase v. 2.0, [alpha-P32]-deoxyadenosine-5′-triphosphate, and [alpha-P32]-thymidine-5′-triphosphate, and isolating the cloned fragment by nondenaturing gel electrophoresis. Standard methods were used for all DNA manipulations, including A and G sequencing. See, e.g., Maxam et al., Methods Enzymol., 1980, 65, 499-560; Iverson et al., Methods Enzymol., 1987, 15, 7823-7830; and Sambrook et al., 1989, Molecular Cloning, 2nd ed., Cold Spring Harbor Laboratory Press: Cold Spring Harbor, N.Y.
(§5) Quantitative DNase I footprint titration experiments were carried out as described previously (Dervan, WO 98/50582, 1998, “Dervan '582”) with the following changes. All reactions were carried out in a total volume of 400 μL, with polyamide stock solution or water added to 15,000 cpm radiolabeled restriction fragment affording final solution conditions of 10 mM Tris.HCl, 10 mM KCl, 10 mM MgCl2, 5 mM CaCl2, pH 7.0 and 0.01 nM, 0.1 nM, 1.0 nM, 10.0 nM polyamide or no polyamide for reference lanes. The polyamides were allowed to equilibrate at 22° C. for 16 hr. Footprinting reactions were initiated with addition of 10 μL of a DNase I stock solution (at the appropriate concentration to give ˜50% intact DNA) containing 1 mM DTT and allowed to proceed for 7 min at 22° C. The reactions were stopped, ethanol precipitated, resuspended in loading buffer, heat denatured, and placed on ice as described in Dervan '582. The reaction products were separated on a precast 8% polyacrylamide denaturing sequencing Castaway gel with 32 preformed wells from Stratagene in 1× TBE at 2000 V. Gels were dried according to the manufacturer's instructions and exposed to a storage phosphor screen (Molecular Dynamics). Quantitation and data analysis were carried out as described in Dervan '582.

The next test deals with 5′-AAAAAGACAAAAA-3′. Type of test: binding. Particulars: DNA sequence 5′-AAAAAGACAAAAA-3′; pH 7.0, 22° C. As to the method: as §1, §2, §3, §4, §5
Another test concerns 5′-AAAAAGCAAAAA-3′. Type of test: binding. Particulars: DNA sequence 5′-AAAAAGCAAAAA-3′; pH 7.0, 22° C. As to the method: as §1, §2, §3, §4, §5
The subject of the next test is S. pneumoniae ATCC 49619. The experiment in a line: NCCLS broth microdilution MIC. Type of test: cell-based, Streptococcus pneumoniae. Particulars: F = S. pneumoniae ATCC 49619. As to the method:
(§6) Compounds according to this invention were screened for their in vitro activities against selected species of bacteria and fungi. The minimal inhibition concentration (MIC) of these compounds was determined using the National Committee for Clinical Laboratory Standards (NCCLS) broth microdilution assay in microtiter plates, as set forth in: (1) the guidelines of the National Committee for Clinical Laboratory Standards (NCCLS) Document M7-A4 (NCCLS, 1997); (2) the guidelines of the National Committee for Clinical Laboratory Standards (NCCLS) Document M11-A4 (NCCLS, 1997); and (3) the guidelines and reference method of the National Committee for Clinical Laboratory Standards (NCCLS) Document M27-T (NCCLS, 1995). For antifungal essays, the method recommended in Murray, P R., 1995 Manual of Clinical Microbiology (ASM Press, Washington, D.C.), was employed. […]

The next test relates to S. aureus ATCC 29213. Put plainly: NCCLS broth microdilution MIC. Particulars: A = S. aureus ATCC 29213. Type of test: cell-based, Staphylococcus aureus. As to the method: as §6
(In general: Broth dilution looks for growth in wells or tubes with falling amounts of substance.)

In another test the test system is B. cereus ATCC 11778. Put plainly: NCCLS broth microdilution MIC. Type of test: cell-based, Bacillus cereus. As to conditions: C = B. cereus ATCC 11778. As to the method: as §6
A further test relates to E. faecalis ATCC 29212. The experiment in a line: NCCLS broth microdilution MIC. Type of test: cell-based, Enterococcus faecalis. Particulars: B = E. faecalis ATCC 29212. As to the method: as §6
The subject of a further test is E. coli ATCC 25922. The experiment in a line: NCCLS broth microdilution MIC. Type of test: cell-based. Particulars: D = E. coli ATCC 25922. As to the method: as §6
A further test concerns C. albicans ATCC 38247. The experiment in a line: NCCLS broth microdilution MIC (antifungal). Type of test: cell-based. Particulars: E = C. albicans ATCC 38247. As to the method: as §6

As to `Cn1cc(NC(=O)c2cc(NC(=O)CCNC(=O)c3cc(NC(=O)c4cc(NC(=O)c5cc(Br)c(Br)s5)cn4C)cn3C)cn2C)cc1C(=O)NCCC(=O)NCC(C)(C)CN` [Id-4], the “Equilibrium Association Constant (Ka)” value with 5′-AAAAAGTACAAAAA-3′ came out at 5e+11 M⁻¹; with 5′-AAAAAGACAAAAA-3′, 1e+10 M⁻¹; in the test with 5′-AAAAAGCAAAAA-3′, 5e+09 M⁻¹. In addition, the “Minimum Inhibitory Concentration (MIC)” value in the test on S. pneumoniae ATCC 49619 is “+++ (+++ = MIC ≦4)”; in the test on S. aureus ATCC 29213 it was “+++ (+++ = MIC ≦4)”; with B. cereus ATCC 11778, “+++ (+++ = MIC ≦4)”; with E. faecalis ATCC 29212, “+++ (+++ = MIC ≦4)”; in the test with E. coli ATCC 25922, greater than 32 µg/mL; with C. albicans ATCC 38247, greater than 32 µg/mL.
`Cn1cc(NC(=O)c2cc(NC(=O)CCNC(=O)c3cc(NC(=O)c4cc(NC(=O)c5ccc(Br)s5)cn4C)cn3C)cn2C)cc1C(=O)NCCC(=O)NCCCNC1CCCCC1` [Id-15]: the “Equilibrium Association Constant (Ka)” value with 5′-AAAAAGTACAAAAA-3′ is “≧1 × 10^11 M^−1”; with 5′-AAAAAGACAAAAA-3′, 5e+10 M⁻¹; in the test on 5′-AAAAAGCAAAAA-3′ it was 5e+10 M⁻¹. In addition, the “Minimum Inhibitory Concentration (MIC)” value in the test on S. pneumoniae ATCC 49619 is “++ (++ = MIC between 4 and 12)”; in the test with S. aureus ATCC 29213, greater than 32 µg/mL; in the test on B. cereus ATCC 11778, “+ (+ = MIC from 12 to 32, inclusive)”; with E. faecalis ATCC 29212, “+ (+ = MIC from 12 to 32, inclusive)”; with C. albicans ATCC 38247 it was greater than 32 µg/mL.
For `CN(C)CCCNC(=O)CCNC(=O)c1cc(NC(=O)c2cc(NC(=O)CCNC(=O)c3cc(NC(=O)c4cc(NC(=O)c5ccc(Br)s5)cn4C)cn3C)cn2C)cn1C` [Id-18], the “Equilibrium Association Constant (Ka)” value in the test on 5′-AAAAAGTACAAAAA-3′, in the test with 5′-AAAAAGACAAAAA-3′ and in the test on 5′-AAAAAGCAAAAA-3′ was “≧1 × 10^11 M^−1” in each case. For the same molecule, the “Minimum Inhibitory Concentration (MIC)” value is “+++ (+++ = MIC ≦4)” in the test with S. pneumoniae ATCC 49619; greater than 32 µg/mL in the test on S. aureus ATCC 29213; “+ (+ = MIC from 12 to 32, inclusive)” in the test on B. cereus ATCC 11778; “++ (++ = MIC between 4 and 12)” with E. faecalis ATCC 29212; greater than 32 µg/mL in the test with E. coli ATCC 25922; greater than 32 µg/mL in the test on C. albicans ATCC 38247.
In the case of `CN(C)CCCNC(=O)CCNC(=O)c1cc(NC(=O)c2cc(NC(=O)CCNC(=O)c3cc(NC(=O)c4cc(NC(=O)c5cc(Br)c(Br)s5)cn4C)cn3C)cn2C)cn1C` [Id-1], the “Equilibrium Association Constant (Ka)” value with 5′-AAAAAGTACAAAAA-3′, in the test on 5′-AAAAAGACAAAAA-3′ and in the test with 5′-AAAAAGCAAAAA-3′ was “≧1 × 10^11 M^−1” in each case. Moreover, the “Minimum Inhibitory Concentration (MIC)” value with S. pneumoniae ATCC 49619 is “+++ (+++ = MIC ≦4)”; in the test on S. aureus ATCC 29213, “+++ (+++ = MIC ≦4)”; in the test with B. cereus ATCC 11778 it was “+++ (+++ = MIC ≦4)”; with E. faecalis ATCC 29212 it was “+++ (+++ = MIC ≦4)”; in the test on E. coli ATCC 25922 it was greater than 32 µg/mL; with C. albicans ATCC 38247, greater than 32 µg/mL.
For `CC(C)N(CCNC(=O)CCNC(=O)c1cc(NC(=O)c2cc(NC(=O)CCNC(=O)c3cc(NC(=O)c4cc(NC(=O)c5ccc(Br)s5)cn4C)cn3C)cn2C)cn1C)C(C)C` [Id-19], the “Equilibrium Association Constant (Ka)” value was “≧1 × 10^11 M^−1” with 5′-AAAAAGTACAAAAA-3′, 5e+09 M⁻¹ with 5′-AAAAAGACAAAAA-3′ and 5e+09 M⁻¹ with 5′-AAAAAGCAAAAA-3′. The “Minimum Inhibitory Concentration (MIC)” value with S. pneumoniae ATCC 49619 is “+++ (+++ = MIC ≦4)”; in the test with S. aureus ATCC 29213, greater than 32 µg/mL; in the test with B. cereus ATCC 11778 it was “+++ (+++ = MIC ≦4)”; with E. faecalis ATCC 29212, “+++ (+++ = MIC ≦4)”; with E. coli ATCC 25922, greater than 32 µg/mL; in the test with C. albicans ATCC 38247 it was greater than 32 µg/mL.
With `Cn1cc(NC(=O)c2cc(NC(=O)CCNC(=O)c3cc(NC(=O)c4cc(NC(=O)c5ccc(Br)s5)cn4C)cn3C)cn2C)cc1C(=O)NCCC(=O)NCCCCCCN` [Id-21], the “Equilibrium Association Constant (Ka)” value in the test with 5′-AAAAAGTACAAAAA-3′ was “≧1 × 10^11 M^−1”; with 5′-AAAAAGACAAAAA-3′, 1e+10 M⁻¹; in the test with 5′-AAAAAGCAAAAA-3′, 5e+10 M⁻¹. Moreover, the “Minimum Inhibitory Concentration (MIC)” value in the test with S. pneumoniae ATCC 49619 was “+++ (+++ = MIC ≦4)”; with S. aureus ATCC 29213, greater than 32 µg/mL; in the test on B. cereus ATCC 11778, “+++ (+++ = MIC ≦4)”; with E. faecalis ATCC 29212, “+++ (+++ = MIC ≦4)”; in the test with E. coli ATCC 25922, greater than 32 µg/mL; in the test with C. albicans ATCC 38247 it was greater than 32 µg/mL.
For the molecule `CCN(CC)CCCNC(=O)CCNC(=O)c1cc(NC(=O)c2cc(NC(=O)CCNC(=O)c3cc(NC(=O)c4cc(NC(=O)c5cc(Br)c(Br)s5)cn4C)cn3C)cn2C)cn1C` [Id-6], the “Equilibrium Association Constant (Ka)” value with 5′-AAAAAGTACAAAAA-3′ was “≧1 × 10^11 M^−1”; with 5′-AAAAAGACAAAAA-3′, 1e+10 M⁻¹; in the test with 5′-AAAAAGCAAAAA-3′ it was 1e+10 M⁻¹. Also, the “Minimum Inhibitory Concentration (MIC)” value with S. pneumoniae ATCC 49619 was “+++ (+++ = MIC ≦4)”; in the test with S. aureus ATCC 29213 it was “+++ (+++ = MIC ≦4)”; with B. cereus ATCC 11778, “+++ (+++ = MIC ≦4)”; with E. faecalis ATCC 29212 it was “+++ (+++ = MIC ≦4)”; in the test on E. coli ATCC 25922, greater than 32 µg/mL; with C. albicans ATCC 38247, greater than 32 µg/mL.
For the molecule `Cn1cc(NC(=O)c2cc(NC(=O)CCNC(=O)c3cc(NC(=O)c4cc(NC(=O)c5cc(Br)c(Br)s5)cn4C)cn3C)cn2C)cc1C(=O)NCCC(=O)NCCN1CCCCC1` [Id-5], the “Equilibrium Association Constant (Ka)” value was 1e+11 M⁻¹ in the test with 5′-AAAAAGTACAAAAA-3′, 2e+10 M⁻¹ in the test with 5′-AAAAAGACAAAAA-3′ and 2e+09 M⁻¹ with 5′-AAAAAGCAAAAA-3′. Moreover, the “Minimum Inhibitory Concentration (MIC)” value with S. pneumoniae ATCC 49619 was “+++ (+++ = MIC ≦4)”; in the test on S. aureus ATCC 29213, “+++ (+++ = MIC ≦4)”; in the test with B. cereus ATCC 11778, “+++ (+++ = MIC ≦4)”; in the test with E. faecalis ATCC 29212, “+++ (+++ = MIC ≦4)”; with E. coli ATCC 25922 it was greater than 32 µg/mL; with C. albicans ATCC 38247, greater than 32 µg/mL.
As to `Cn1cc(NC(=O)c2cc(NC(=O)CCNC(=O)c3cc(NC(=O)c4cc(NC(=O)c5ccc(Br)s5)cn4C)cn3C)cn2C)cc1C(=O)NCCC(=O)NCCCCN` [Id-17], the “Equilibrium Association Constant (Ka)” value with 5′-AAAAAGTACAAAAA-3′, in the test on 5′-AAAAAGACAAAAA-3′ and in the test with 5′-AAAAAGCAAAAA-3′ was “≧1 × 10^11 M^−1” throughout. Also, the “Minimum Inhibitory Concentration (MIC)” value was “+++ (+++ = MIC ≦4)” in the test with S. pneumoniae ATCC 49619; “+ (+ = MIC from 12 to 32, inclusive)” in the test on S. aureus ATCC 29213; “+++ (+++ = MIC ≦4)” in the test on B. cereus ATCC 11778; “++ (++ = MIC between 4 and 12)” in the test with E. faecalis ATCC 29212; greater than 32 µg/mL with E. coli ATCC 25922; greater than 32 µg/mL in the test with C. albicans ATCC 38247.
